Laboratory results from patent publication US20200392158A1, “INHIBITORS OF LEUCINE RICH REPEAT KINASE 2” (GLAXOSMITHKLINE INTELLECTUAL PROPERTY DEVELOPMENT LIMITED, priority 2017, published 2020).

Target: T1, LRRK2 kinase in SH-SY5Y cells over-expressing recombinant full length LRRK2 (Homo sapiens, UniProt Q5S007)
T1 construct: A BacMam virus expressing full length recombinant LRRK2 was purchased from Invitrogen; host or cells: SH-SY5Y human neuroblastoma cells transduced with BacMam LRRK2 virus
Assay: Recombinant cellular LRRK2 AlphaScreen assay (LRRK2 Ser935 phosphorylation)
Assay type: cell-based
Details: 60 min
Text: b. Recombinant Cellular LRRK2 AlphaScreen Assay
To determine the activity of compounds against LRRK2 kinase in cells, the observed LRRK2 kinase-dependent modulation of LRRK2 Ser 935 phosphorylation (Dzamko et al., 2010, Biochem. J. 430: 405-413) was utilized to develop a quantitative 384 well plate-based immunoassay of LRRK2 Ser935 phosphorylation in the human neuroblastoma cell line SH-SY5Y, engineered to over-express recombinant full length LRRK2 protein.
A BacMam virus expressing full length recombinant LRRK2 was purchased from Invitrogen and amplified by inoculation of SF-9 cells at MOI 0.3 for 4-5 days in Sf-900 III SFM medium supplemented with 3% fetal bovine serum. Infected cell cultures were then centrifuged at 2000 g for 20 minutes, viral supernatant titer determined by anti-gp64 plaque assay and stored at 4° C.
Affinity-purified anti-phospho LRRK2 Ser935 sheep polyclonal antibody (Dzamko et al., 2010, Biochem. J. 430: 405-413) was biotinylated by standard methods (PerkinElmer). Anti-LRRK2 rabbit polyclonal antibody was purchased from Novus Biologicals. AlphaScreen Protein A IgG Kit (including acceptor and donor beads) was purchased from Perkin Elmer.
SH-SY5Y cells were grown in DMEM/F12 medium with 10% dialysed fetal bovine serum and harvested by treatment with 0.5% trypsin-EDTA for 5 minutes at 37° C. followed by centrifugation at 1000 rpm for 4 minutes. The cell pellet was resuspended in Opti-MEM reduced serum media (Invitrogen) at 200,000 cells/ml and mixed with the BacMam LRRK2 virus at M01=50. 50 μl cell solutions were then dispensed to each well of a 384-well plate and incubated at 37° C., 5% CO2 for 24 hours.
Compounds were prepared at 10× final assay concentration as 11 point 1 in 4 serial I dilutions in Opti-MEM reduced serum medium (Invitrogen 31985070) containing 1% DMSO. On the day of assay, 5.5 μl of the compound solutions were transferred from the compound plate to the cell assay plate to achieve a top final assay concentration of 10 uM. DMSO (0.1% final assay concentration) was added to column 6 and 2-(benzyloxy)-5-methyl-4-(1-methyl-1H-pyrazol-4-yl)-N-(pyridin-3-yl)benzamide (2 μM final assay concentration) was added to column 18 to serve as 0% and 100% inhibition controls, respectively.
Cells were incubated at 37° C., 5% CO2 for 60 minutes. The medium was then removed and cells lysed by addition of 20 μl of cell lysis buffer (Cell Signaling Technology) and incubation at 4° C. for 20 minutes. 10 μl of antibody/acceptor bead mix [(1/1000 biotinylated-pS935 LRRK2 antibody, 1/1000 total-LRRK2 antibody, 1/100 Acceptor beads in AlphaScreen detection buffer (25 mM Hepes (pH 7.4), 0.5% Triton X-100, 1 mg/ml Dextran 500 and 0.1% BSA)] was then added to each well and plates incubated for 2 hours at ambient temperature in the dark. 10 μl of donor beads solution (1/33.3 donor beads in AlphaScreen detection buffer) was then added to each well. Following incubation for a further 2 hours at ambient temperature in the dark, plates were read on an EnVision™ plate reader at emission 520-620 nm with excitation 680 nm. Dose response curve data was based on a sigmoidal dose-response model.

T1 sequence (Q5S007 whole entry): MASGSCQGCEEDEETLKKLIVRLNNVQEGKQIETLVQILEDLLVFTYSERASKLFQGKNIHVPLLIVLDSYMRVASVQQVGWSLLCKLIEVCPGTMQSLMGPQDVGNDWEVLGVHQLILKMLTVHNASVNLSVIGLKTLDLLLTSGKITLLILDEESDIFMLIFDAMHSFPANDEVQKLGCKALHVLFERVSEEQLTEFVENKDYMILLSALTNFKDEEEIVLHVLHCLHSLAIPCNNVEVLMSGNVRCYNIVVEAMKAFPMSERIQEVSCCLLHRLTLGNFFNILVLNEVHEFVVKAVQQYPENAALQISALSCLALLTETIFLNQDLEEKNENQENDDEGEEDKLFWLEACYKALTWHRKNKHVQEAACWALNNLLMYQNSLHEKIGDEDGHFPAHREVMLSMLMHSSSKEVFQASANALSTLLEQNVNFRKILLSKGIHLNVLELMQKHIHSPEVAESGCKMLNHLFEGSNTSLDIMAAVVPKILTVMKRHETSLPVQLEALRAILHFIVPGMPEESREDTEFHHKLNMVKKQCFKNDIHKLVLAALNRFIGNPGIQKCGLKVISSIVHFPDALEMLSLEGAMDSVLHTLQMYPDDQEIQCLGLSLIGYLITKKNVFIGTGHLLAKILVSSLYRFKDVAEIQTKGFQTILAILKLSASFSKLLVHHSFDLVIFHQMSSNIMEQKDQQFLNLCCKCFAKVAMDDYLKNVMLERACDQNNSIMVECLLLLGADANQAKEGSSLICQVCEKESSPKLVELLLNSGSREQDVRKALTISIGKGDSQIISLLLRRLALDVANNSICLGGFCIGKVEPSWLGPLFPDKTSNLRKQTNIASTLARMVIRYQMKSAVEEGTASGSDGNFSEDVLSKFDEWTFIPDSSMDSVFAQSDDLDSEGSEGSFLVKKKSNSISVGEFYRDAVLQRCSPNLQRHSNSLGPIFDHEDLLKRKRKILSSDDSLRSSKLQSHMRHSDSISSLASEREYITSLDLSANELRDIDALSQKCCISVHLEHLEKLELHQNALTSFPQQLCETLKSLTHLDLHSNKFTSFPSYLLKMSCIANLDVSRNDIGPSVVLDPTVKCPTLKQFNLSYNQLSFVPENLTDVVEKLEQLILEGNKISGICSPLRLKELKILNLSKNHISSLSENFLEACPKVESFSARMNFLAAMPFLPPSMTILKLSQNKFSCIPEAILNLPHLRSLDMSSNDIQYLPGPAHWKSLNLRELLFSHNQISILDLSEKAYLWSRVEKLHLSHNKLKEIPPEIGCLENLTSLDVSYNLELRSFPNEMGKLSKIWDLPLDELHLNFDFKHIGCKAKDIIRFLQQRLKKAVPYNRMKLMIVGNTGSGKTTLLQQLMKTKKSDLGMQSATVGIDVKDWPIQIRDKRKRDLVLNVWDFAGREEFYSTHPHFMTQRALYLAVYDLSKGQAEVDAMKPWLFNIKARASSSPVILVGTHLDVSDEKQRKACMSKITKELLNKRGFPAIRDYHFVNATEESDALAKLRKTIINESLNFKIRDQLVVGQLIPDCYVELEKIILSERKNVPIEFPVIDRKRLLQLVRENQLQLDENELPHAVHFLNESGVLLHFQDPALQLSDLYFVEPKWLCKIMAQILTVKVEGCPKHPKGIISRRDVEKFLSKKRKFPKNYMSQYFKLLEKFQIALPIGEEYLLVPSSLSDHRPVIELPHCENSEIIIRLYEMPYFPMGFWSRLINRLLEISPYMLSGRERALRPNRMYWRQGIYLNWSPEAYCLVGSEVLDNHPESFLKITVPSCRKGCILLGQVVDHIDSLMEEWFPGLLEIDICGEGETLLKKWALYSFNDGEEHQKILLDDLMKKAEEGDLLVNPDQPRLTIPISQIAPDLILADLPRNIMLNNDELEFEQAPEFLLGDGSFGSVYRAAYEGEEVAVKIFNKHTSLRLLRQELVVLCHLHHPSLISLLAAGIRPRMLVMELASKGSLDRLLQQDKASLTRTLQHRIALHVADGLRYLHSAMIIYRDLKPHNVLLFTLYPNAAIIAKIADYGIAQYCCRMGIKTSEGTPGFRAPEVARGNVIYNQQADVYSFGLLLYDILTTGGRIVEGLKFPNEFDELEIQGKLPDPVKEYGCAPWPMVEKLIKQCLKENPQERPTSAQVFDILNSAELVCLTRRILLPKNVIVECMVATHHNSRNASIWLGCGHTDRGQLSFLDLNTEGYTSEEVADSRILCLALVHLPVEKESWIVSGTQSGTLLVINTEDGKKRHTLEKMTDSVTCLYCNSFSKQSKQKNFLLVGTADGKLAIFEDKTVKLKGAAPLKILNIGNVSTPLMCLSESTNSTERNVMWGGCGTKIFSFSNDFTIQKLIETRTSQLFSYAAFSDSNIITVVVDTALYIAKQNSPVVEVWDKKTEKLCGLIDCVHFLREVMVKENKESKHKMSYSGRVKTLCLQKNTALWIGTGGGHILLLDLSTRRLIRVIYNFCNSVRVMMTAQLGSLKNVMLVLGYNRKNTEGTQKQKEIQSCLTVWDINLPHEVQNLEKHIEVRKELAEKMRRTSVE

SMILES	IC50
Cc1c2c(nn1C1CCN(C3COC3)CC1F)OCCC(C)Nc1nc(ncc1Cl)N2 (single isomer, unassigned) [E96, 14-chloro-5-[3-fluoro-1-(oxetan-3-yl)piperidin-4-yl]-4,11-dimethyl-8-oxa-2,5,6,12,16,17-hexaazatricyclo[11.3.1.0^3,7]heptadeca-1(16),3,6,13(17),14-pentaene]	≤ 100 nM
COCCN1CCC(n2nc3c(c2C)Nc2ncc(Cl)c(n2)N[C@H](C)CCO3)C(F)C1 (single isomer, unassigned) [E100]	≤ 100 nM
Cc1c2c(nn1C1CCCOC1)OCCCNc1nc(ncc1C(F)(F)F)N2 (single isomer, unassigned) [E132, 4-methyl-5-(oxan-3-yl)-14-(trifluoromethyl)-8-oxa-2,5,6,12,16,17-hexaazatricyclo[11.3.1.0^3,7]heptadeca-1(16),3,6,13(17),14-pentaene]	≤ 100 nM
Cc1c2c(nn1C1CCC(N3CCOCC3)CC1)OCCC(C)Nc1nc(ncc1Cl)N2 (single isomer, unassigned) [E150]	≤ 100 nM
Cc1c2c(nn1C1CCC(N3CCC(F)C3)CC1)OCCCNc1nc(ncc1Cl)N2 (single isomer, unassigned) [E152, 14-Chloro-5-[4-(3-fluoropyrrolidin-1-yl)cyclohexyl]-4-methyl-8-oxa-2,5,6,12,16,17-hexaazatricyclo[11.3.1. 0^3,7]heptadeca-1(16),3,6,13(17),14-pentaene]	≤ 100 nM
Cc1c2c(nn1C1CCC(N3CCC(F)C3)CC1)OCCC(C)Nc1nc(ncc1Cl)N2 (single isomer, unassigned) [E158, 14-Chloro-5-[4-(3-fluoropyrrolidin-1-yl)cyclohexyl]-4,11-dimethyl-8-oxa-2,5,6,12,16,17-hexaazatricyclo [11.3.1.0^3,7]heptadeca-1(16),3,6,13(17),14-pentaene]	≤ 100 nM
Cc1c2c(nn1C(C)(C)C#N)OCC(C)C(C)Nc1nc(ncc1Cl)N2 (single isomer, unassigned) [E165, 2-{14-Chloro-4,10,11-trimethyl-8-oxa-2,5,6, 12,16,17-hexaazatricyclo[11.3.1.0^3,7]heptadeca-1(16),3,6, 13(17),14-pentaen-5-yl}-2-methylpropanenitrile]	≤ 100 nM
COCC1CCOc2nn(C3CCOCC3)c(C)c2Nc2ncc(Br)c(n2)N1 (single isomer, unassigned) [E168, 14-Bromo-11-(methoxymethyl)-4-methyl-5-(oxan-4-yl)-8-oxa-2,5,6,12,16,17-hexaazatricyclo[11.3.1.0^3,7] heptadeca-1(16),3,6,13(17),14-pentaene]	≤ 100 nM
COC1CCCC(n2nc3c(c2C)Nc2ncc(Cl)c(n2)NC(C)CCO3)C1 (single isomer, unassigned) [E170, 14-Chloro-5-(3-methoxycyclohexyl)-4,11-dimethyl-8-oxa-2,5,6,12,16,17-hexaazatricyclo[11.3.1.0^3,7] heptadeca-1(16),3,6,13(17),14-pentaene]	≤ 100 nM
COC1CCCC(n2nc3c(c2C)Nc2ncc(Cl)c(n2)NCCCO3)C1 (single isomer, unassigned) [E178, 14-Chloro-5-(3-methoxycyclohexyl)-4-methyl-8-oxa-2,5,6,12,16,17-hexaazatricyclo[11.3.1.0^3,7]heptadeca-1(16),3,6,13(17),14-pentaene]	≤ 100 nM
Cc1c2c(nn1C1CC(C)OC(C)C1)OCCC(C)Nc1nc(ncc1Cl)N2 (single isomer, unassigned) [E194, 14-Chloro-5-(2,6-dimethyloxan-4-yl)-4,11-dimethyl-8-oxa-2,5,6,12,16,17-hexaazatricyclo[11.3.1.0^3,7] heptadeca-1(16),3,6,13(17),14-pentaene]	≤ 100 nM
Cc1c2c(nn1C1CC(C)OC(C)C1)OCCCNc1nc(ncc1Cl)N2 (single isomer, unassigned) [E200, 14-Chloro-5-(2,6-dimethyloxan-4-yl)-4-methyl-8-oxa-2,5,6,12,16,17-hexaazatricyclo[11.3.1.0^3,7]heptadeca-1(16),3,6,13(17),14-pentaene]	≤ 100 nM
Cc1c2c(nn1C1CCOC(C)C1)OCCCNc1nc(ncc1Cl)N2 (single isomer, unassigned) [E202, 14-Chloro-4-methyl-5-(2-methyloxan-4-yl)-8-oxa-2,5,6,12,16,17-hexaazatricyclo[11.3.1.0^3,7]heptadeca-1(16),3,6,13(17),14-pentaene]	≤ 100 nM
COC1CNc2nc(ncc2Cl)Nc2c(nn(C3CCOC(C)C3)c2C)OC1 (single isomer, unassigned) [E206, 14-Chloro-10-methoxy-4-methyl-5-(2-methyloxan-4-yl)-8-oxa-2,5,6,12,16,17-hexaazatricyclo [11.3.1.0^3,7] heptadeca-1(16),3,6,13(17),14-pentaene]	≤ 100 nM
COC1CNc2nc(ncc2Cl)Nc2c(nn(CCN3CCOCC3)c2C)OC1 (single isomer, unassigned) [E223, 14-Chloro-10-methoxy-4-methyl-5-[2-(morpholin-4-yl)ethyl]-8-oxa-2,5,6,12,16,17-hexaazatricyclo [11.3.1.0^3,7]heptadeca-1(16),3,6,13(17),14-pentaene]	≤ 100 nM
COC1CNc2nc(ncc2C(F)(F)F)Nc2c(nn(C3CCCOC3)c2C)OC1 (single isomer, unassigned) [E227, 10-Methoxy-4-methyl-5-(oxan-3-yl)-14-(trifluoromethyl)-8-oxa-2,5,6,12,16,17-hexaazatricyclo [11.3.1.0^3,7] heptadeca-1(17),3,6,13,15-pentaene]	≤ 100 nM
COC1CNc2nc(ncc2Cl)Nc2c(nn(C3CCCOC3)c2C)OC1 (single isomer, unassigned) [E229, 14-Chloro-10-methoxy-4-methyl-5-(oxan-3-yl)-8-oxa-2,5,6,12,16,17-hexaazatricyclo[11.3.1.0^3,7]heptadeca-1(17),3,6,13,15-pentaene]	≤ 100 nM
Cc1c2c(nn1C1CCOCC1F)OCCCNc1nc(ncc1Cl)N2 (single isomer, unassigned) [E233, 14-Chloro-5-(3-fluorooxan-4-yl)-4-methyl-8-oxa-2,5,6,12,16,17-hexaazatricyclo[11.3.1.0^3,7]heptadeca-1(16),3,6,13 (17),14-pentaene]	≤ 100 nM
COC1CCC(n2nc3c(c2C)Nc2ncc(Cl)c(n2)NCCCO3)CC1 (single isomer, unassigned) [E237, 14-Chloro-5-(4-methoxycyclohexyl)-4-methyl-8-oxa-2,5,6,12,16,17-hexaazatricyclo[11.3.1.0^3,7]heptadeca-1(16), 3,6,13(17),14-pentaene]	≤ 100 nM
COC1CCC(n2nc3c(c2C)Nc2ncc(Cl)c(n2)NCC(OC)CO3)CC1 (single isomer, unassigned) [E239, 14-Chloro-10-methoxy-5-(4-methoxycyclohexyl)-4-methyl-8-oxa-2,5,6,12,16,17-hexaazatricyclo [11.3.1. 0^3,7]heptadeca-1(16),3,6,13(17),14-pentaene]	≤ 100 nM
Cc1c2c(nn1C1CC3CCC(C1)O3)OCCC(C)Nc1nc(ncc1Cl)N2 (single isomer, unassigned) [E249, 14-Chloro-4,11-dimethyl-5-{8-oxabicyclo[3.2.1]octan-3-yl}-8-oxa-2,5,6,12,16,17-hexaazatricyclo[11.3.1.0^3,7] heptadeca-1(16),3,6,13(17),14-pentaene]	≤ 100 nM
COC1CNc2nc(ncc2Cl)Nc2c(nn(C3CCC(C)CC3)c2C)OC1 (single isomer, unassigned) [E255, 14-Chloro-10-methoxy-4-methyl-5-(4-methylcyclohexyl)-8-oxa-2,5,6,12,16,17-hexaazatricyclo [11.3.1.0^3,7] heptadeca-1(16),3,6,13(17),14-pentaene]	≤ 100 nM
Cc1c2c(nn1C1CCC(C)CC1)OCCCNc1nc(ncc1Cl)N2 (single isomer, unassigned) [E257, 14-Chloro-4-methyl-5-(4-methylcyclohexyl)-8-oxa-2,5,6,12,16,17-hexaazatricyclo[11.3.1.0^3,7]heptadeca-1(16),3,6,13 (17),14-pentaene]	≤ 100 nM
